Laboratory results as given in publication PMC8703605, “Enhancement of the Topical Bioavailability and Skin Whitening Effect of Genistein by Using Microemulsions as Drug Delivery Carriers” (Pharmaceuticals, 2021).
Values after ≈ are worked out from the molar mass of the structure shown. Where two headings read alike, the source gives them in different places.

How the values were obtained:
[1] = Solubility of genistein in different vehicles (shake flask, HPLC); assay type: physicochemical
Method: An excess amount of genistein was added to 1 mL each of the vehicles, including receptor buffer and oils, into a 1.5-mL Eppendorf, which was placed on a reciproacting shaker (Shaking Bath, Model B601D, Firstek Co., Ltd., Taipei, Taiwan) and shaken for more than 24 h at room temperature. Then each smaple was centrifuged at 12,000 rpm for 10 min. The drug concentration in supernatant was analyzed by HPLC.
Hitachi HPLC system (Hitachi, Tokyo, Japan), including model L-7100 pump, L-5210 autosampler, model L-4000H detector, and Merck Lichrocart® 100 RP 18 column (250 mm × 4 mm, 5 μm), was used. The mobile phase was composed of methanol and 0.05% phosphoric acid aqueous solution at ratios of 80/20 v/v. The flow rate and detection wavelength were at 1.0 mL/min and 230 nm, respectively. Diazepam solution was used as internal standard. The analytical method was successfully validated for linearity (1.0~100.0 μg/mL), with a determination coefficient (R^2) of 0.9997, precision of coefficient of variation (CV, %) of 4.16%, and accuracy of relative error (RE, %) of 5.71%. The limit of quantitation was 0.5 µg/mL.

[2] = set-up: method as in PMID 20190449; conditions: at 25 °C; cited from earlier work
Salmonella typhimurium = test system: Salmonella typhimurium; set-up: method as in PMID 16198038, PMID 9748575, PMID 2548712; conditions: cited from earlier work
rats = test system: rats; set-up: method as in PMID 16198038, PMID 9748575, PMID 2548712; conditions: cited from earlier work
[3] = In vivo pharmacokinetic determination; conditions: 20 mg/kg; for Cmax / Tmax / half-life / AUC: male, Sprague-Dawley, rat, in vivo; for AUC: AUC0→ꝏ
Method: Rats were divided into two groups, i.e., tranderaml (test) group and oral (control) group, each of three. Rats were anesthetized by 10% chloral hydrate (dosing 0.3 mL/100 g) for intraperitoneal injection. After being anesthetized, hairs on the abdominal skin were removed by an electric shaver. Then, a glass ring with a diameter of 3 cm was fixed on the skin by a quick-drying glue. The applied dose of 20 mg/kg of the tested microemulsion formulation was placed inside the glass ring. […] Blood samples of approximately 0.6 mL were collected from the jugular vein and placed into a 1.5-mL Eppendorf at predetermined time intervals after transdermal administration. Then, the blood sample was centrifuged at 12,000 rpm for 10 min. The plasma samples were stored at −20 °C until analysis. Three to six replicates were conducted for each formulation.
Sample preparation [49, 53, 54]: A 100 μL of plasma samples was incubated with 100 μL of the sulfatase (approximately 200 unit) at 37 ± 0.5 °C for 5 h. Then, 100 µL Nicotine 4 µg/mL was used as internal standard added to the sample, then vortexed for 10 s. A total of 1 mL tert-methyl butyl ether was added for extract solution and vortexed for 10 min and then centrifuged at 10,000 rpm for 10 min. The supernatant of 800 µL was transferred to Eppendorf and evaporated to dryness in the vacuum oven (EYELA CVE-3000, Tokyo, Japan) for 1 h and 40 °C. The residue was reconstituted with 100 µL methanol and analyzed.
The pharmacokinetic analysis includes the following quantities: area under the curve (AUC), maximum plasma concentration (Cmax), the time needed to reach the maximum plasma concentration (Tmax), and the half-life (t1/2) of the drug. All values are presented as the mean ± standard deviation (SD). All data were processed using Phoenix WinNonlin 6.3 (Pharsight Corporation, Sunnyvale, CA, USA) to construct pharmacokinetic profiles. Data were analyzed by using the ANOVA test to evaluate the differences between the groups, and values of p < 0.05 indicated significant differences compared with control.

mice = test system: mice; set-up: method as in PMID 16198038, PMID 9748575, PMID 2548712; conditions: cited from earlier work

Question: Which results are given for `O=c1c(-c2ccc(O)cc2)coc2cc(O)cc(O)c12` [genistein, 4′,5,7-trihydroxyisoflavone]?
Answer: Increase of solubility in co-surfactant vs distilled water ([1]; co-surfactant): > 8415 fold; solubility ([1]; in Distilled water, room temperature, read-out: Solubility): ~0.01 mg/mL (≈ 0.037 mM); solubility ([1]; microemulsion with PEG 400 concentration 0, read-out: Solubility in microemulsion): 11.1 mg/mL (≈ 41 mM); solubility ([1]; microemulsion with PEG 400 concentration 20%, read-out: Solubility in microemulsion): 32 mg/mL (≈ 118 mM); Increase of solubility in oil vs distilled water ([1]; oil): more than 13 fold; solubility ([1]; oil or lipid, thermodynamic from solid, in Capryol 90, room temperature, read-out: Solubility): 5.2 ± 0.23 mg/mL (≈ 19.2 mM); solubility ([1]; oil or lipid, thermodynamic from solid, in Oleic acid, room temperature, read-out: Solubility): 0.13 ± 0.02 mg/mL (≈ 0.481 mM); solubility ([1]; oil or lipid, thermodynamic from solid, in Peceol, room temperature, read-out: Solubility): 0.36 ± 0.01 mg/mL (≈ 1.33 mM); solubility ([1]; organic solvent or mixture, thermodynamic from solid, in PEG 400, room temperature, read-out: Solubility): 84.2 ± 5.61 mg/mL (≈ 311 mM); solubility ([1]; organic solvent or mixture, thermodynamic from solid, in Transcutol HP, room temperature, read-out: Solubility): 94.7 ± 3.92 mg/mL (≈ 350 mM); Increase of solubility in surfactant vs distilled water ([1]; surfactant): > 1903 fold; solubility ([1]; thermodynamic from solid, in Brij 30, room temperature, read-out: Solubility): 27.7 ± 1.8 mg/mL (≈ 103 mM); solubility ([1]; thermodynamic from solid, in Cremophor EL, room temperature, read-out: Solubility): 19.4 ± 6.15 mg/mL (≈ 71.9 mM); solubility ([1]; thermodynamic from solid, in Labrasol, room temperature, read-out: Solubility): 55.5 ± 3.56 mg/mL (≈ 205 mM); solubility ([1]; thermodynamic from solid, in Tween 80, room temperature, read-out: Solubility): 19 ± 1.37 mg/mL (≈ 70.4 mM); solubility ([1]; water, thermodynamic from solid, in Distilled water, room temperature, read-out: Solubility): 0.01 mg/mL (≈ 0.037 mM); solubility in water [2]: 5.3 µM (≈ 1.43 µg/mL); Mutagenicity (Salmonella typhimurium): not mutagenic; Mutagenicity and teratogenicity (rats): not mutagenic or teratogenic; Cmax ([3]; po): 3120 ± 1800 ng/mL; Tmax ([3]; po): 3.67 ± 0.43 h; half-life ([3]; po): 6.52 ± 1.24 h; AUC ([3]; po, rats, aqueous suspension, n = 3): 33900 ± 4760 ng·h/mL; Cmax ([3]; topical or ocular): 9120 ± 570 ng/mL; Tmax ([3]; topical or ocular): 7.26 ± 1.11 h; half-life ([3]; topical or ocular): 19.3 ± 5.05 h; AUC ([3]; topical or ocular, rats, transdermal, microemulsion, n = 3): 329000 ± 50000 ng·h/mL; AUC0→ꝏ ([3]; rats, oral, aqueous suspension, n = 3): 33910 ± 4760 ng·h/mL; Mutagenicity and teratogenicity (mice): not mutagenic or teratogenic
